These results are taken from patent US10988523B2, “Modified lipidated Relaxin B chain peptides and their therapeutic use” (Sanofi, priority 2018, dated 2021).

*1 amine or outer side, *2 acyl side, *3 side chain or, on linkers, in order; H or OH if unused. Where a SMILES comes first, the peptide text is derived from it. Primed or numbered codes have the meaning given here. Side-chain parts run from the residue outwards. [ ]: non-standard residue; d: D form. The star is where a group is joined. γGlu = O=C(O)[C@H](CCC(=O)[*:2])N[*:1]; Stearoyl = CCCCCCCCCCCCCCCCCC(=O)*; Palmitoyl = CCCCCCCCCCCCCCCC(=O)*; Nle = CCCC[C@H](N)C(=O)O; PEG2″ = not defined here; Aib = CC(C)(N)C(=O)O

This assay has as its target T1, RXFP1 (Homo sapiens, UniProt Q9HBX9).
T1 construct: OVCAR5 cells expressing endogenous RXFP1; endogenous in cells; host or cells: OVCAR5 cells
T1 sequence (Q9HBX9 1-757): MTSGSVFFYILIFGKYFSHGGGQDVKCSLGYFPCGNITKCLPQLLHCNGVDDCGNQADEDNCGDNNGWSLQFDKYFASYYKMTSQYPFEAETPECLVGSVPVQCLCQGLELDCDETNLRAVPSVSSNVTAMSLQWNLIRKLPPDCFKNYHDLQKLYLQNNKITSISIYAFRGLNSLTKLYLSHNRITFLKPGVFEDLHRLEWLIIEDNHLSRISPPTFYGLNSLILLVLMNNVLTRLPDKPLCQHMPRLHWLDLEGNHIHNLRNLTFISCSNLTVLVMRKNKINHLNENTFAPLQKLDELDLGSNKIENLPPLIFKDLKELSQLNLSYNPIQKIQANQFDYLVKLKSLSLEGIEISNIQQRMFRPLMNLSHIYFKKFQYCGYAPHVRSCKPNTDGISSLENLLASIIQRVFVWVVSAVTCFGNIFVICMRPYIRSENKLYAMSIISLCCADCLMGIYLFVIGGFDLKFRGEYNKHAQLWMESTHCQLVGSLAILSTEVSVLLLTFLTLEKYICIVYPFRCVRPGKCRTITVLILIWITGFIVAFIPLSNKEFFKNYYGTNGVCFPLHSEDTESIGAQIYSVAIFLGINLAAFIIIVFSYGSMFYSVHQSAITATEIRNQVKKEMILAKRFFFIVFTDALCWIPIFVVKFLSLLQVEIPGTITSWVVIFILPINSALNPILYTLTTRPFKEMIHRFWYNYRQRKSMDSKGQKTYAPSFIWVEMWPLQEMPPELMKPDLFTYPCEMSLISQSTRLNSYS
Briefly: OVCAR5 cAMP assay (HTRF), RXFP1 agonist activity. The format is cell-based. The note with it: for EC50: OVCAR5 cells, cAMP HTRF, read-out: EC50 (nM), OVCAR 5 cells (cAMP); for Emax: OVCAR-5, read-out: EMax, OVCAR 5 cells (cAMP). The text has this:
OVCAR5 cells expressing endogenous RXFP1 were used to test RXP1 agonist properties of peptides of the invention, and in particular of the peptides of sequence SEQ ID NO: 1-193.
Since RXFP1 is a Gs coupled GPCR, cAMP was used as readout of RXFP1 activation.
Isobutyl Methyl Xanthine (IBMX) was used to inhibit phosphodiesterase activity facilitating cAMP measurements. HTRF (Homogenous Time Resolved Fluorescence) technology was used to detect cAMP due to its great sensitivity.
In summary, OVCAR5 were grown in regular medium (RPMI) containing 10% fetal calf serum (FCS) and 1% antibiotics (penicillin/streptomycin).
Before the experiments, cells were detached with accutase and incubated for 40 minutes at 37° C. with 1 mM (3-isobutyl-1-methylxanthine) IBMX.
Cells were then distributed in 384 black well plates containing increasing concentrations of the different peptides in a fix volume of medium (without FCS).
After an incubation of 30 min at 37° C. in an humid incubator in 5% CO2, the reaction was stopped by adding a fixed volume of a solution containing a lysis buffer and cAMP-D2 (cAMP labeled with the dye d2) and the anti cAMP antibody linked to Europium and used for cAMP detection.
Readout of the experiment were performed on a fluorimeter allowing HTRF measurement. Activation curves were generated by plotting the intracellular value of cAMP versus log 10 of the compound concentration.
The 50% activation concentration (EC50) was calculated by nonlinear regression using the sigmoidal dose-response (variable slope) equation with Prism 5 software.
Emax % is determined as the maximal intracellular value of cAMP for test compound (upper limit of cAMP vs concentration curve) divided by the maximal intracellular value of cAMP for H2-relaxin determined in the same test occasion multiplied by 100. Emax %=100×[cAMPtest cpd]/[cAMPH2-RlX]

Where [1] appears, read: maximal cAMP relative to H2-relaxin maximum (100%).

On to “127 (Ac-LEGREKVRAK(Ac)I[Aib][Aib]EG[Nle]STWS[Aib]RKLK([PEG2″-PEG2″-PEG2″-γGlu-γGlu-γGlu-Stearoyl])-NH2) [compound 127]”, for which the EC50 stood at 4.4 nM. Further, the “EMax, OVCAR 5 cells (cAMP)” value under setting [1] stood at 88%.

As for “174 (Ac-LEGREKVRAQI[Aib][Aib]EG[Nle]STWS[Aib]RKKK-NH2; not fully specified (residue 25); printed as Ac-L-E-G-R-E-K-V-R-A-Q-I-Aib-Aib-E-G-Nle-S-T-W-S-Aib-R-K-K-K(PEG2-PEG2-PEG2-gE-gE-gE-Stea)-NH2) [compound 174]”, the EC50 amounted to 0.41 nM.

For `CCCCCCCCCCCCCCCC(=O)NCCCC[C@H](NC(=O)[C@H](CCCCN)NC(=O)[C@H](CCCNC(=N)N)NC(=O)C(C)(C)NC(=O)[C@H](CO)NC(=O)[C@H](Cc1c[nH]c2ccccc12)NC(=O)[C@@H](NC(=O)[C@H](CO)NC(=O)[C@H](CCCC)NC(=O)CNC(=O)[C@H](CCC(=O)O)NC(=O)C(C)(C)NC(=O)C(C)(C)NC(=O)[C@@H](NC(=O)[C@H](C)NC(=O)[C@H](C)NC(=O)[C@H](CCCNC(=N)N)NC(=O)[C@@H](NC(=O)[C@H](CCCCN)NC(=O)[C@H](CCC(=O)O)NC(=O)[C@H](CCCNC(=N)N)NC(=O)CNC(=O)[C@H](CCC(=O)O)NC(=O)[C@H](CC(C)C)NC(C)=O)C(C)C)[C@@H](C)CC)[C@@H](C)O)C(N)=O` [compound 1] (Ac-LEGREKVRAAI[Aib][Aib]EG[Nle]STWS[Aib]RKK(Palmitoyl)-NH2), under setting [1], the Emax was found to be 85%.

On to `CCCCCCCCCCCCCCCC(=O)N[C@@H](CCC(=O)NCCCC[C@H](NC(=O)[C@H](CCCCN)NC(=O)[C@H](CCCNC(=N)N)NC(=O)C(C)(C)NC(=O)[C@H](CO)NC(=O)[C@H](Cc1c[nH]c2ccccc12)NC(=O)[C@@H](NC(=O)[C@H](CO)NC(=O)[C@H](CCCC)NC(=O)CNC(=O)[C@H](CCC(=O)O)NC(=O)C(C)(C)NC(=O)C(C)(C)NC(=O)[C@@H](NC(=O)[C@H](CCC(N)=O)NC(=O)[C@H](C)NC(=O)[C@H](CCCNC(=N)N)NC(=O)[C@@H](NC(=O)[C@H](CCCCN)NC(=O)[C@H](CCC(=O)O)NC(=O)[C@H](CCCNC(=N)N)NC(=O)CNC(=O)[C@H](CCC(=O)O)NC(=O)[C@H](CC(C)C)NC(C)=O)C(C)C)[C@@H](C)CC)[C@@H](C)O)C(N)=O)C(=O)O` [compound 2] (Ac-LEGREKVRAQI[Aib][Aib]EG[Nle]STWS[Aib]RKK([γGlu-Palmitoyl])-NH2), for which the maximal response (Emax) under setting [1] was 100%.

Regarding `CCCCCCCCCCCCCCCCCC(=O)N[C@@H](CCC(=O)NCCCC[C@H](NC(=O)[C@H](CCCCN)NC(=O)[C@H](CCCNC(=N)N)NC(=O)C(C)(C)NC(=O)[C@H](CO)NC(=O)[C@H](Cc1c[nH]c2ccccc12)NC(=O)[C@@H](NC(=O)[C@H](CO)NC(=O)[C@H](CCCC)NC(=O)CNC(=O)[C@H](CCC(=O)O)NC(=O)C(C)(C)NC(=O)C(C)(C)NC(=O)[C@@H](NC(=O)[C@H](CCC(N)=O)NC(=O)[C@H](C)NC(=O)[C@H](CCCNC(=N)N)NC(=O)[C@@H](NC(=O)[C@H](CCCCN)NC(=O)[C@H](CCC(=O)O)NC(=O)[C@H](CCCNC(=N)N)NC(=O)CNC(=O)[C@H](CCC(=O)O)NC(=O)[C@H](CC(C)C)NC(C)=O)C(C)C)[C@@H](C)CC)[C@@H](C)O)C(N)=O)C(=O)O` [compound 3] (Ac-LEGREKVRAQI[Aib][Aib]EG[Nle]STWS[Aib]RKK([γGlu-Stearoyl])-NH2), the maximal response (Emax) under setting [1] was 93%.

Consider `CCCCCCCCCCCCCCCC(=O)N[C@@H](CCC(=O)N[C@@H](CCC(=O)NCCCC[C@H](NC(=O)[C@H](CCCCN)NC(=O)[C@H](CCCNC(=N)N)NC(=O)C(C)(C)NC(=O)[C@H](CO)NC(=O)[C@H](Cc1c[nH]c2ccccc12)NC(=O)[C@@H](NC(=O)[C@H](CO)NC(=O)[C@H](CCCC)NC(=O)CNC(=O)[C@H](CCC(=O)O)NC(=O)C(C)(C)NC(=O)C(C)(C)NC(=O)[C@@H](NC(=O)[C@H](C)NC(=O)[C@H](C)NC(=O)[C@H](CCCNC(=N)N)NC(=O)[C@@H](NC(=O)[C@H](CCCCN)NC(=O)[C@H](CCC(=O)O)NC(=O)[C@H](CCCNC(=N)N)NC(=O)CNC(=O)[C@H](CCC(=O)O)NC(=O)[C@H](CC(C)C)NC(=O)[C@H](CCC(=O)O)NC(C)=O)C(C)C)[C@@H](C)CC)[C@@H](C)O)C(N)=O)C(=O)O)C(=O)O` [compound 4] (Ac-ELEGREKVRAAI[Aib][Aib]EG[Nle]STWS[Aib]RKK([γGlu-γGlu-Palmitoyl])-NH2), for which the maximum response (Emax) under setting [1] was found to be 99%.

As for `CCCCCCCCCCCCCCCC(=O)N[C@@H](CCC(=O)N[C@@H](CCC(=O)NCCCC[C@H](NC(=O)[C@H](CCCNC(=N)N)NC(=O)C(C)(C)NC(=O)[C@H](CO)NC(=O)[C@H](Cc1c[nH]c2ccccc12)NC(=O)[C@@H](NC(=O)[C@H](CO)NC(=O)[C@H](CCSC)NC(=O)CNC(=O)[C@H](CCC(=O)O)NC(=O)C(C)(C)NC(=O)C(C)(C)NC(=O)[C@@H](NC(=O)[C@H](CCC(N)=O)NC(=O)[C@H](C)NC(=O)[C@H](CCCNC(=N)N)NC(=O)[C@@H](NC(=O)[C@H](CCCCN)NC(=O)[C@H](CCC(=O)O)NC(=O)[C@H](CCCNC(=N)N)NC(=O)CNC(=O)[C@H](CCC(=O)O)NC(=O)[C@H](CC(C)C)NC(C)=O)C(C)C)[C@@H](C)CC)[C@@H](C)O)C(N)=O)C(=O)O)C(=O)O` [compound 5] (Ac-LEGREKVRAQI[Aib][Aib]EGMSTWS[Aib]RK([γGlu-γGlu-Palmitoyl])-NH2), the maximal response (Emax) under setting [1] stood at 105%.

As for `CCCCCCCCCCCCCCCC(=O)N[C@@H](CCC(=O)N[C@@H](CCC(=O)N[C@@H](CCC(=O)NCCCC[C@H](NC(=O)[C@H](CCCCN)NC(=O)[C@H](CCCCN)NC(=O)[C@H](CCCNC(=N)N)NC(=O)C(C)(C)NC(=O)[C@H](CO)NC(=O)[C@H](Cc1c[nH]c2ccccc12)NC(=O)[C@@H](NC(=O)[C@H](CO)NC(=O)[C@H](CCCC)NC(=O)CNC(=O)[C@H](CCC(=O)O)NC(=O)C(C)(C)NC(=O)C(C)(C)NC(=O)[C@@H](NC(=O)[C@H](C)NC(=O)[C@H](C)NC(=O)[C@H](CCCNC(=N)N)NC(=O)[C@@H](NC(=O)[C@H](CCCCN)NC(=O)[C@H](CCC(=O)O)NC(=O)[C@H](CCCNC(=N)N)NC(=O)CNC(=O)[C@H](CCC(=O)O)NC(=O)[C@H](CC(C)C)NC(=O)[C@H](CCC(=O)O)NC(C)=O)C(C)C)[C@@H](C)CC)[C@@H](C)O)C(N)=O)C(=O)O)C(=O)O)C(=O)O` [compound 6] (Ac-ELEGREKVRAAI[Aib][Aib]EG[Nle]STWS[Aib]RKKK([γGlu-γGlu-γGlu-Palmitoyl])-NH2), the maximum response (Emax) under setting [1] turned out to be 100%.

`CCCCCCCCCCCCCCCC(=O)N[C@@H](CCC(=O)N[C@@H](CCC(=O)N[C@@H](CCC(=O)NCCCC[C@H](NC(=O)[C@H](CCCCN)NC(=O)[C@H](CCCNC(=N)N)NC(=O)C(C)(C)NC(=O)[C@H](CO)NC(=O)[C@H](Cc1c[nH]c2ccccc12)NC(=O)[C@@H](NC(=O)[C@H](CO)NC(=O)[C@H](CCCC)NC(=O)CNC(=O)[C@H](CCC(=O)O)NC(=O)C(C)(C)NC(=O)C(C)(C)NC(=O)[C@@H](NC(=O)[C@H](CCC(N)=O)NC(=O)[C@H](C)NC(=O)[C@H](CCCNC(=N)N)NC(=O)[C@@H](NC(=O)[C@H](CCCCN)NC(=O)[C@H](CCC(=O)O)NC(=O)[C@H](CCCNC(=N)N)NC(=O)CNC(=O)[C@H](CCC(=O)O)NC(=O)[C@H](CC(C)C)NC(C)=O)C(C)C)[C@@H](C)CC)[C@@H](C)O)C(N)=O)C(=O)O)C(=O)O)C(=O)O` [compound 8] (Ac-LEGREKVRAQI[Aib][Aib]EG[Nle]STWS[Aib]RKK([γGlu-γGlu-γGlu-Palmitoyl])-NH2): the concentration for a half-maximal effect (EC50) was found to be 26.7 nM. Also, the Emax under setting [1] came to 98%.
